One experiment concerns THP-1 cells. Kind of experiment: TNFα generation assay. The class given is cell-based, human. Particulars: Homo sapiens, THP-1, THP-1 cells; Table 22; read-out: IC50 in TNFα generation assay. The essentials: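 Secreted TNFα in supernatant quantified by ELISA or AlphaLISA after 7 h culture on human IgG-coated wells (10 μg/ml coating). Cells were IFN-γ-differentiated THP-1 (10 ng/ml, 2 days), exposed to compound for 30 min at room temperature before plating.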

Experiment [1] deals with T1, glutathione S-transferase (GST)-fused full-length human Syk protein (Homo sapiens, UniProt P43405).
T1 construct: (GST)-fused full-length human Syk protein; GST (glutathione S-transferase); purchased Carna Biosciences
Kind of experiment: Syk enzyme assay. The class given is biochemical. As to conditions: Syk enzyme assay, Test Example 1; read-out: IC50 of Syk-inhibitory activity. The essentials: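 Baculovirus-expressed enzyme (1.2 ng) was preincubated with compound in HEPES pH 7.0/MgCl2/DTT buffer, 2 min shaking then 13 min at room temperature. Biotin-EDPDYEWPSA-NH2 (0.4 μM final) and ATP (27 μM final) were added for 40 min at room temperature. EDTA stop, streptavidin-XL/PT66-K TR-FRET at 615/665 nm gave IC50.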

Each structure is given as a SMILES string.

`COc1ccc(-c2cncc(Nc3nc(N[C@@H]4CCCC[C@@H]4N)c(F)cc3C(N)=O)c2)c(OC)c1` (relative stereo) [Example 004-190, 6-(cis-2-aminocyclohexylamino)-2-((5-(2,4-dimethoxyphenyl)pyridin-3-yl)amino)-5-fluoronicotinamide]: the IC50 with THP-1 cells is 130 to 200 nM; in experiment [1], < 10 nM.

Regarding `COCc1cc(Nc2nc(N[C@@H]3CCCC[C@@H]3N)c(F)cc2C(N)=O)ccn1` (relative stereo) [Example 004-191, 6-(cis-2-aminocyclohexylamino)-5-fluoro-2-((2-(methoxymethyl)pyridin-4-yl)amino)nicotinamide], the IC50 with THP-1 cells lay in the range of 65 to 130 nM; in experiment [1], 10 to 50 nM.

In the case of `COc1cccc(-c2cncc(Nc3nc(N[C@@H]4CCCC[C@@H]4N)c(F)cc3C(N)=O)c2)c1F` (relative stereo) [Example 004-197, 6-(cis-2-aminocyclohexylamino)-5-fluoro-2-((5-(2-fluoro-3-methoxyphenyl)pyridin-3-yl)amino)nicotinamide], the IC50 is 65 to 130 nM in the experiment on THP-1 cells and < 10 nM in experiment [1].

In the case of `COc1ccc(-c2cncc(Nc3nc(N[C@@H]4CCCC[C@@H]4N)c(F)cc3C(N)=O)c2)c(F)c1` (relative stereo) [Example 004-198, 6-(cis-2-aminocyclohexylamino)-5-fluoro-2-((5-(2-fluoro-4-methoxyphenyl)pyridin-3-yl)amino)nicotinamide], the IC50 in the experiment on THP-1 cells is 65 to 130 nM; in experiment [1] it was < 10 nM.

Take `COc1ccc(F)c(-c2cncc(Nc3nc(N[C@@H]4CCCC[C@@H]4N)c(F)cc3C(N)=O)c2)c1` (relative stereo) [Example 004-199, 6-(cis-2-aminocyclohexylamino)-5-fluoro-2-((5-(2-fluoro-5-methoxyphenyl)pyridin-3-yl)amino)nicotinamide]: the IC50 is 130 to 200 nM in the experiment with THP-1 cells and < 10 nM in experiment [1].

On to `NC(=O)c1cc(F)c(N[C@@H]2CCCC[C@@H]2N)nc1Nc1ccc2nc(OCCN3CCOC3=O)ccc2c1` (relative stereo) [Example 004-201, 6-(cis-2-aminocyclohexylamino)-5-fluoro-2-((2-(2-(2-oxooxazolidin-3-yl)ethoxy)quinolin-6-yl)amino)nicotinamide], for which the IC50 with THP-1 cells was 130 to 200 nM; in experiment [1], < 10 nM.

Turning to `NC(=O)c1cc(F)c(N[C@@H]2CCCC[C@@H]2N)nc1Nc1cncc(-c2ncccn2)c1` (relative stereo) [Example 004-214, 6-(cis-2-aminocyclohexylamino)-5-fluoro-2-((5-(pyrimidin-2-yl)pyridin-3-yl)amino)nicotinamide], the IC50 was 130 to 200 nM in the experiment on THP-1 cells and 10 to 50 nM in experiment [1].

Regarding `NC(=O)c1cc(F)c(N[C@@H]2CCCC[C@@H]2N)nc1Nc1cncc(-c2cccc([N+](=O)[O-])c2)c1` (relative stereo) [Example 004-215, 6-(cis-2-aminocyclohexylamino)-5-fluoro-2-((5-(3-nitrophenyl)pyridin-3-yl)amino)nicotinamide], the IC50 in the experiment with THP-1 cells is 65 to 130 nM; in experiment [1] it was < 10 nM.

For `NC(=O)c1cc(F)c(N[C@@H]2CCCC[C@@H]2N)nc1Nc1cncc(-c2cccc(N)c2)c1` (relative stereo) [Example 004-217, 6-(cis-2-aminocyclohexylamino)-2-((5-(3-aminophenyl)pyridin-3-yl)amino)-5-fluoronicotinamide], the values for the IC50 (in the experiment with THP-1 cells; in experiment [1]) were 65 to 130 nM and < 10 nM, respectively.

`NC(=O)c1cc(F)c(N[C@@H]2CCCC[C@@H]2N)nc1Nc1cncc(-c2ccc(N)cc2)c1` (relative stereo) [Example 004-218, 6-(cis-2-aminocyclohexylamino)-2-((5-(4-aminophenyl)pyridin-3-yl)amino)-5-fluoronicotinamide]: the IC50 with THP-1 cells was 65 to 130 nM; in experiment [1] it was < 10 nM.

Regarding `CNc1cccc(-c2cncc(Nc3nc(N[C@@H]4CCCC[C@@H]4N)c(F)cc3C(N)=O)c2)c1` (relative stereo) [Example 004-219, 6-(cis-2-aminocyclohexylamino)-5-fluoro-2-((5-(3-(methylamino)phenyl)pyridin-3-yl)amino)nicotinamide], the IC50 is 65 to 130 nM in the experiment with THP-1 cells and < 10 nM in experiment [1].

Turning to `CNc1ccc(-c2cncc(Nc3nc(N[C@@H]4CCCC[C@@H]4N)c(F)cc3C(N)=O)c2)cc1` (relative stereo) [Example 004-220, 6-(cis-2-aminocyclohexylamino)-5-fluoro-2-((5-(4-(methylamino)phenyl)pyridin-3-yl)amino)nicotinamide], the IC50 in the experiment with THP-1 cells was 65 to 130 nM; in experiment [1] it was < 10 nM.

As to `NC(=O)c1cc(F)c(N[C@@H]2CCCC[C@@H]2N)nc1Nc1cncc(-c2ccc(N3CCOCC3)cc2)c1` (relative stereo) [Example 004-222, 6-(cis-2-aminocyclohexylamino)-5-fluoro-2-((5-(4-morpholinophenyl)pyridin-3-yl)amino)nicotinamide], the values for the IC50 (in the experiment with THP-1 cells; in experiment [1]) were 130 to 200 nM and < 10 nM, respectively.

Consider `NC(=O)c1cc(F)c(N[C@@H]2CCCC[C@@H]2N)nc1Nc1cncc(-c2ccc(N3CCCC3=O)cc2)c1` (relative stereo) [Example 004-226, 6-(cis-2-aminocyclohexylamino)-5-fluoro-2-((5-(4-(2-oxopyrrolidin-1-yl)phenyl)pyridin-3-yl)amino)nicotinamide], for which the IC50 was 130 to 200 nM in the experiment on THP-1 cells and < 10 nM in experiment [1].

As for `CN(C)c1cccc(-c2cncc(Nc3nc(N[C@@H]4CCCC[C@@H]4N)c(F)cc3C(N)=O)c2)c1` (relative stereo) [Example 004-227, 6-(cis-2-aminocyclohexylamino)-2-((5-(3-(dimethylamino)phenyl)pyridin-3-yl)amino)-5-fluoronicotinamide], the IC50 in the experiment with THP-1 cells is 130 to 200 nM; in experiment [1], < 10 nM.

Turning to `NC(=O)c1cc(F)c(N[C@@H]2CCCC[C@@H]2N)nc1Nc1cncc(-c2nnco2)c1` (relative stereo) [Example 004-229, 2-((5-(1,3,4-oxadiazol-2-yl)pyridin-3-yl)amino)-6-((cis-2-aminocyclohexyl)amino)-5-fluoronicotinamide], the IC50 was 65 to 130 nM in the experiment on THP-1 cells and < 10 nM in experiment [1].

As to `NC(=O)c1cc(F)c(N[C@@H]2CCCC[C@@H]2N)nc1Nc1ccc2ncncc2c1` (relative stereo) [Example 006-062, 6-(cis-2-aminocyclohexylamino)-5-fluoro-2-(quinazolin-6-ylamino)nicotinamide], the IC50 in the experiment with THP-1 cells is < 65 nM; in experiment [1] it was < 10 nM.

With `NC(=O)c1cc(F)c(N[C@@H]2CCCC[C@@H]2N)nc1Nc1cncc(-c2cc[nH]c2)c1` (relative stereo) [Example 006-116, 2-((5-(1H-pyrrol-3-yl)pyridin-3-yl)amino)-6-((cis-2-aminocyclohexyl)amino)-5-fluoronicotinamide], the figures for the IC50 (in the experiment with THP-1 cells; in experiment [1]) were 130 to 200 nM and < 10 nM, respectively.

Take `NC(=O)c1cc(F)c(N[C@@H]2CCCC[C@@H]2N)nc1Nc1cccc(-n2ccnn2)c1` (relative stereo) [Example 006-122, 2-(3-(1H-1,2,3-triazol-1-yl)phenylamino)-6-((cis-2-aminocyclohexyl)amino)-5-fluoronicotinamide]: the IC50 in the experiment with THP-1 cells was 65 to 130 nM; in experiment [1], < 10 nM.

For `NC(=O)c1cc(F)c(N[C@@H]2CCCC[C@@H]2N)nc1Nc1cncc(-n2cccc2)c1` (relative stereo) [Example 006-123, 2-((5-(1H-pyrrol-1-yl)pyridin-3-yl)amino)-6-(cis-2-aminocyclohexylamino)-5-fluoronicotinamide], the IC50 with THP-1 cells is 130 to 200 nM; in experiment [1] it was < 10 nM.

On to `NC(=O)c1cc(F)c(N[C@@H]2CCCC[C@@H]2N)nc1Nc1ccnc(-n2cccc2)c1` (relative stereo) [Example 006-124, 2-((2-(1H-pyrrol-1-yl)pyridin-4-yl)amino)-6-((cis-2-aminocyclohexyl)amino)-5-fluoronicotinamide], for which the IC50 is 130 to 200 nM with THP-1 cells and < 10 nM in experiment [1].

With `NC(=O)c1cc(F)c(N[C@@H]2CCCC[C@@H]2N)nc1Nc1ccnc(-n2nccn2)c1` (relative stereo) [Example 006-125, 2-((2-(2H-1,2,3-triazol-2-yl)pyridin-4-yl)amino)-6-((cis-2-aminocyclohexyl)amino)-5-fluoronicotinamide], the IC50 was 65 to 130 nM in the experiment on THP-1 cells and < 10 nM in experiment [1].

As to `NC(=O)c1cc(F)c(N[C@@H]2CCCC[C@@H]2N)nc1Nc1ccnc(-n2ccnn2)c1` (relative stereo) [Example 006-126, 2-((2-(1H-1,2,3-triazol-1-yl)pyridin-4-yl)amino)-6-((cis-2-aminocyclohexyl)amino)-5-fluoronicotinamide], the IC50 was < 65 nM with THP-1 cells and < 10 nM in experiment [1].

Turning to `NC(=O)c1cc(F)c(N[C@@H]2CCCC[C@@H]2N)nc1Nc1ccnc(-n2ccnc2)c1` (relative stereo) [Example 006-128, 2-((2-(1-imidazol-1-yl)pyridin-4-yl)amino)-6-((cis-2-aminocyclohexyl)amino)-5-fluoronicotinamide], the results for the IC50 (in the experiment on THP-1 cells; in experiment [1]) were 130 to 200 nM and 10 to 50 nM, respectively.

In the case of `NC(=O)c1cc(F)c(N[C@@H]2CCCC[C@@H]2N)nc1Nc1cncc(-n2cccn2)c1` (relative stereo) [Example 006-129, 2-((5-(1H-pyrazol-1-yl)pyridin-3-yl)amino)-6-((cis-2-aminocyclohexyl)amino)-5-fluoronicotinamide], the values for the IC50 (with THP-1 cells; in experiment [1]) were < 65 nM and < 10 nM, respectively.

For the origin of these results see patent US8895585B2, “Nicotinamide derivative or salt thereof” (FUJIFILM Corporation, priority 2010, dated 2014).
